Patent US7727956B2, “Deoxonadepsipeptides” (Aicuris GmbH & Co. KG, priority 2004, dated 2010)
In brackets after ≈: the same amount, converted by molar mass. Like-named read-outs stand apart in the source and are kept apart here. Starred links: 1 amine or outer side, 2 acyl side, 3 side chain; linkers in the order of their positions; H or OH if unused. Positions of bridges follow the written chain, without caps; N, C: chain ends. Non-standard residues stand in square brackets, D forms with d. Residues, ends and D or L forms follow the SMILES beside them. X3 = C[Si](C)(C)C[C@H](N)CN([C@@H](C[Si](C)(C)C)C(=O)[*:2])[*:1]; X4 = CC(C)(C)C[C@@H](C(=O)[*:2])N(C[C@@H](N)C[Si](C)(C)C)[*:1]; X1 = CC(C)C[C@@H](C(=O)[*:2])N(C[C@@H](N)C[Si](C)(C)C)[*:1]; Phe(3R-OH) = O=C([C@@H](N[*:1])[C@H](O[*:3])c1ccccc1)[*:2]; X2 = CC(C)(C)C[C@H](N)CN([C@@H](CC(C)(C)C)C(=O)[*:2])[*:1]; Asn(3S-OH) = NC(=O)[C@@H](O)[C@H](N)C(=O)O; Leu(3R-OH) = CC(C)[C@@H](O)[C@H](N)C(=O)O; aThr = C[C@H](O)[C@H](N)C(=O)O

Columns and labels:
[1] = test system: Streptococcus pneumoniae G9a; format: cell-based
Protocol: (§1) Determination of the Minimum Inhibitory Concentration (MIC):
(§2) The MIC is determined in the liquid dilution test in accordance with the NCCLS guidelines. Overnight cultures of Staphylococcus aureus 133, Entercococcus faecalis 27159, E. faecium 4147 and Streptococcus pneumoniae G9a are incubated with the described test substances in a 1:2 dilution series. The MIC determination is carried out with a cell count of 105 microorganisms per ml in Isosensitest medium (Difco, Irvine/USA), with the exception of S. pneumoniae, which is tested in BHI broth (Difco, Irvine/USA) with 10% bovine serum at a cell count of 106 microorganisms per ml. The cultures are incubated at 37° C. for 18-24 hours, S. pneumoniae in the presence of 10% CO2.
(§3) The lowest substance concentration in each case at which no visible bacterial growth occurs any more is defined as the MIC. The MIC values are reported in μg/ml.

[2] = test system: Staphylococcus aureus 133; format: cell-based
Protocol: as §1, §2, §3

E. faecalis ICB 27159 = format: cell-based, Entercococcus faecalis
Protocol: as §1, §2, §3

[3] = BHI broth with 10% bovine serum, 37° C., 18-24 hours, 10% CO2
[4] = Isosensitest medium, 37° C., 18-24 hours

| Structure (SMILES) | MIC S. pneumoniae ([1]; G9a) | MIC S. aureus 133 [2]; 133 | MIC E. faecalis ICB 27159 (E. faecalis ICB 27159; ICB 27159) | MIC S. pneumoniae [1, 3] | MIC S. aureus 133 [2, 4] | MIC E. faecalis ICB 27159 (E. faecalis ICB 27159; [4]) |
| --- | --- | --- | --- | --- | --- | --- |
| CC[C@H](C)[C@@H]1NC(=O)[C@@H](CCCNC(=N)N)NC(=O)[C@H](CC(C)C)NC(=O)[C@H]([C@H](O)C(C)C)NC(=O)[C@@H](NC(=O)[C@H](CC(C)(C)C)NC[C@@H](N)CC(C)(C)C)[C@@H](c2ccccc2)OC(=O)[C@H](CO)NC(=O)[C@H]([C@H](O)C(N)=O)NC(=O)CNC(=O)[C@H]([C@H](C)O)NC1=O [Example 8, N-{N-[(2S)-2-Amino-4,4-dimethylpent-1-yl]-β-tBu-Ala-de(1-D-leucine-2-leucine)-lysobactintris-hydrofluoro-acetate] (H-[X2][Phe(3R-OH)][Leu(3R-OH)]L[dR]I[aThr]G[Asn(3S-OH)]S; ester 2-C) | 0.063 µg/mL (≈ 0.0488 µM) | 0.5 µg/mL (≈ 0.387 µM) | 1 µg/mL (≈ 0.775 µM) | – | – | – |
| CC[C@H](C)[C@@H]1NC(=O)[C@@H](CCCNC(=N)N)NC(=O)[C@H](CC(C)C)NC(=O)[C@H]([C@H](O)C(C)C)NC(=O)[C@@H](NC(=O)[C@H](CC(C)C)NC[C@@H](N)C[Si](C)(C)C)[C@@H](c2ccccc2)OC(=O)[C@H](CO)NC(=O)[C@H]([C@H](O)C(N)=O)NC(=O)CNC(=O)[C@H]([C@H](C)O)NC1=O [Example 5, N-[(2R)-2-Amino-3-trimethylsilyl-prop-1-yl]de(1-D-leucine) lysobactin trishydro-trifluoroacetate] (H-[X1][Phe(3R-OH)][Leu(3R-OH)]L[dR]I[aThr]G[Asn(3S-OH)]S; ester 2-C) | – | – | – | 0.063 µg/mL (≈ 0.0487 µM) | 0.5 µg/mL (≈ 0.387 µM) | 1 µg/mL (≈ 0.774 µM) |
| CC[C@H](C)[C@@H]1NC(=O)[C@@H](CCCNC(=N)N)NC(=O)[C@H](CC(C)C)NC(=O)[C@H]([C@H](O)C(C)C)NC(=O)[C@@H](NC(=O)[C@H](C[Si](C)(C)C)NC[C@@H](N)C[Si](C)(C)C)[C@@H](c2ccccc2)OC(=O)[C@H](CO)NC(=O)[C@H]([C@H](O)C(N)=O)NC(=O)CNC(=O)[C@H]([C@H](C)O)NC1=O [Example 14, N-{N-[(2R)-2-Amino-3-trimethylsilyl-prop-1-yl]-(β-trimethylsilyl)-Ala]}de(1-D-leucine-2-leucine)-lysobactin tris-hydrotrifluoro-acetate] (H-[X3][Phe(3R-OH)][Leu(3R-OH)]L[dR]I[aThr]G[Asn(3S-OH)]S; ester 2-C) | – | – | – | 0.0156 µg/mL (≈ 0.0118 µM) | 0.25 µg/mL (≈ 0.189 µM) | 0.125 µg/mL (≈ 0.0945 µM) |
| CC[C@H](C)[C@@H]1NC(=O)[C@@H](CCCNC(=N)N)NC(=O)[C@H](CC(C)C)NC(=O)[C@H]([C@H](O)C(C)C)NC(=O)[C@@H](NC(=O)[C@H](CC(C)(C)C)NC[C@@H](N)C[Si](C)(C)C)[C@@H](c2ccccc2)OC(=O)[C@H](CO)NC(=O)[C@H]([C@H](O)C(N)=O)NC(=O)CNC(=O)[C@H]([C@H](C)O)NC1=O [Example 15, N-{N-[(2R)-2-Amino-3-tri-methylsilylprop-1-yl]-(β-tBu-Ala)}-de(1-D-leucine-2-leucine) lysobactin trishydro-trifluoroacetate] (H-[X4][Phe(3R-OH)][Leu(3R-OH)]L[dR]I[aThr]G[Asn(3S-OH)]S; ester 2-C) | – | – | – | 0.063 µg/mL (≈ 0.0482 µM) | 0.5 µg/mL (≈ 0.383 µM) | 1 µg/mL (≈ 0.765 µM) |
